Entries after “also recorded” stand apart in the source; their conditions may differ.
Legend:
[1] = Model of excessive eating (palatable diet), 3-week administration; format: in vivo, male Wistar rats
Method: The experiments were carried out on male Wistar rats. Their initial body weight was 210–230 g. The animals were housed in pairs in plastic cages in constant temperature facilities exposed to a light–dark cycle; water and food were available ad libitum. The control and experimental groups consisted of eight animals each. All experiments were conducted according to the guidelines of the Animal Use and Care Committee of the Jagiellonian University and were approved for realization (2013 and 2015, Poland; Permissions No 136/2013 and 258/2015).
In order to determine the anorectic activity of KMP-10, its effect on caloric and water intake in the model of excessive eating was assessed. Male Wistar rats were housed in pairs. Two groups of 8 rats were fed diets consisting of milk chocolate with nuts, cheese, salted peanuts, and 7% condensed milk; these rats also had access to a standard feed (Labofeed B, Morawski Manufacturer Feed, Poland) and water ad libitum for 3 weeks. The palatable control group (palatable diet + vehicle) received vehicle (1% Tween 80, i.p.), while the palatable test group (palatable diet + KMP-10 5 mg) was intraperitoneally injected with KMP-10 at the dose 5 mg/kg b.w./day dissolved in 1% Tween 80. The intakes of food and water were evaluated daily. On the 22th day, 20 min after the i.p. administration of heparin 1000 units/rat and thiopental (70 mg/kg b.w.), blood, peritoneal fat pads, liver were collected from animals.
The palatable diet contained 100 g of peanuts—614 kcal; 100 mL of condensed milk—131 kcal; 100 g of milk chocolate with hazelnuts—[…]; and 100 g of cheese (Greek type)—270 kcal.
The spontaneous activity of rats was measured on the 1st, 14th and 20th day of the treatment with a special RFID-system—TraffiCage (TSE-Systems, Germany). The animals were subcutaneously implanted with transmitter identification (RFID), which enabled the presence and time spent in different areas of the cage to be counted; the data were then grouped in a special computer program.
To determine the glucose or cholesterol or triglyceride levels in blood, standard enzymatic and spectrophotometric tests (Biomaxima S.A. Lublin, Poland) were used. The substrate was decomposed with enzymes that were appropriate for the relevant product, which was converted to a colored compound. Coloration was proportional to the concentration. The absorbance was measured at a wavelength of 500 nm.

[2] = Metabolic stability and metabolic pathways in human liver microsomes
Method: The pharmacokinetic parameters of compounds were estimated by using human liver microsomes (HLMs) (Sigma-Aldrich, St. Louis, MO, USA). The t1/2 values and intrinsic clearances (CLint) were calculated with IS by using the protocols and formulas proposed by Obach [38]. […] VL was used as the reference unstable drug.

[3] = target: T1, CYP2D6 (Homo sapiens, UniProt P10635); assay: CYP2D6 P450-Glo drug-drug interaction assay; format: in vitro ADME; settings: summary in comparison to SUVN-502
T1 construct: purchased Promega (Madison, WI, USA)
T1 sequence (P10635 whole entry): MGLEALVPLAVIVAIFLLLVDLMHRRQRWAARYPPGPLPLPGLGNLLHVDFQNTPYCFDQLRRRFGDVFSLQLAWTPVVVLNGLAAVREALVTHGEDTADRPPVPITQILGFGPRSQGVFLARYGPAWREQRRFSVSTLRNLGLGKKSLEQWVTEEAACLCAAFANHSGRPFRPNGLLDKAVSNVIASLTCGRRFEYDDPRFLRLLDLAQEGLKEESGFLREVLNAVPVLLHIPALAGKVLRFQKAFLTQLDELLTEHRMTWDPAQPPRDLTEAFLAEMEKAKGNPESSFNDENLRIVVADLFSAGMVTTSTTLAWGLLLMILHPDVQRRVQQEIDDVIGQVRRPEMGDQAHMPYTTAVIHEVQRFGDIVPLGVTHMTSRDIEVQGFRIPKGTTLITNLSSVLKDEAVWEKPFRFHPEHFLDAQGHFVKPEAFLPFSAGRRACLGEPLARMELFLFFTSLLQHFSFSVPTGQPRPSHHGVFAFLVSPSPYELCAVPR
Method: The influence of triazine derivatives on two the most involved in drug metabolism CYP (cytochrome P450) isoforms CYP3A4 and CYP2D6 was also investigated.
The study was performed using the CYP3A4 P450-Glo^TM and CYP2D6 P450-Glo^TM commercial tests provided by Promega (Madison, WI, USA). The influence of compounds on CYPs activity was tested in white polystyrene, flat-bottom Nunc^TM MicroWell^TM 96-well microplates (Thermo Scientific, Waltham, MA USA), and the bioluminescence signal was measured with a microplate reader (EnSpire) in luminescence mode, as described previously. KMP-10 and DJ-18 were tested in triplicate in the range of 0.01–25 µM for both isoforms’ P450 cytochrome. KE and QD were used as the reference compounds for CYP3A4 and CYP2D6, respectively.

[4] = 5 mg/kg b.w., vs group fed the palatable feed
[5] = model of excessive eating, 5 mg/kg b.w./day i.p.
[6] = palatable diet, 5 mg/kg b.w./day i.p., 3 weeks, vs obesity control group

**Q.** Which HDL cholesterol [1, 4] does the source give for `CN1CCN(c2nc(N)nc(CN3C(=O)NC(C)(c4ccc5ccccc5c4)C3=O)n2)CC1` (centres unmarked) [KMP-10, 3-((4-amino-6-(4-methylpiperazin-1-yl)-1,3,5-triazin-2-yl)methyl)-5-methyl-5-(naphthalen-2-yl)imidazolidine-2,4-dione] here?
**A.** Its HDL cholesterol is “significantly increased; also recorded: significant increase”.

**Q.** What about the “Total cholesterol in blood” value [1, 4] of the same molecule?
**A.** The value was “significantly decreased”.

**Q.** What about the Plasma glucose [1, 5] of the same molecule?
**A.** Its Plasma glucose is “did not reduce”.

**Q.** And the Plasma triglyceride [1, 5]?
**A.** Its Plasma triglyceride is “did not reduce”.

**Q.** What about the “Amount of calories consumed” value [1, 6] of the same molecule?
**A.** The value was “significantly reduced”.

**Q.** What about the Water intake [1, 6] of the same molecule?
**A.** The Water intake was “but not water intake”.

**Q.** What about the “Amount of peritoneal fat” value ([1]; three-week chronic treatment, 5 mg/kg b.w./day i.p.) of the same molecule?
**A.** The value was “did not reduce”.

**Q.** What about the “Metabolic Pathway, metabolite M1” value ([2]; HLMs, 120 min incubation) of the same molecule?
**A.** Its value is “demethylation”.

**Q.** What about the “Metabolic Pathway, metabolite M2” value ([2]; HLMs, 120 min incubation) of the same molecule?
**A.** The value was “hydroxylation”.

**Q.** What about the “Metabolic Pathway, metabolite M3” value ([2]; HLMs, 120 min incubation) of the same molecule?
**A.** Its value is “demethylation and hydroxylation”.

**Q.** And the “Metabolic Pathway, metabolite M4” value ([2]; HLMs, 120 min incubation)?
**A.** The value was “hydroxylation and dehydrogenation”.

**Q.** And the “Intrinsic Clearance CLint” value ([2]; HLMs, reactions terminated at 5, 15, 30 and 45 min)?
**A.** The value was 3.74 mL/min/kg.

**Q.** And the “t1/2, fold longer than verapamil” value ([2]; HLMs, vs unstable reference verapamil)?
**A.** Its value is ~ 8 fold.

**Q.** And the CLint scaled ([2]; human, liver microsomes)?
**A.** The CLint scaled was 3.74 mL/min/kg.

**Q.** What about the half-life ([2]; human, liver microsomes, Half-Life t1/2, HLMs, reactions terminated at 5, 15, 30 and 45 min) of the same molecule?
**A.** Its half-life is 3.98 h.

**Q.** What about the half-life ([2]; human, liver microsomes, t1/2 in vitro, HLMs, as restated in comparison to SUVN-502) of the same molecule?
**A.** The half-life was over 3 h.

**Q.** And the “Influence on CYP2D6” value [3]?
**A.** Its value is “almost no influence”.
